In article PMC6478789, “A chemical toolbox for the study of bromodomains and epigenetic signaling” (Nature Communications, 2019):
Where two headings read alike, the source gives them in different places.

Assays:
[1] = molecular target: FXR1 (Homo sapiens, UniProt P51114); assay: Temperature shift assay (non-BRD reader domains); assay type: binding; settings: 10µM compound
Description: (§1) Temperature shift assays have been described by Fedorov et al.[46]. Recombinant protein domains (bromodomain or kinases) at a concentration of 2 μM in 10 mM HEPES, pH 7.5, and 500 mM NaCl were mixed with 10 μM of chemical probes. Temperature-dependent protein unfolding profiles were measured using a Real-Time PCR Mx3005p machine (Stratagene).
(§2) Wu et al., Supplementary figures and tables 14
(§3) Supplementary Table 3: Selectivity screening data (non-BRD reader domains):
(§4) Temperature shift assay data of BRD probes screened against a diver se panel of methyl-lysine
(§5) reader domains. Compounds were screened a concentration of 10 µM. Shown are temperature

[2] = molecular target: TDRD3 (Homo sapiens, UniProt Q9H7E2); assay: Temperature shift assay (non-BRD reader domains); assay type: binding; settings: 10µM compound
Chain of TDRD3 (Q9H7E2 555-615 limits assumed, species assumed): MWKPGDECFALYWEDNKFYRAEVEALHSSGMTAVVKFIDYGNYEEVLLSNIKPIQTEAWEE
Description: as §1, §2, §3, §4, §5

[3] = molecular target: WDR5 (Homo sapiens, UniProt P61964); assay: Temperature shift assay (non-BRD reader domains); assay type: binding; settings: 10µM compound
Description: as §1, §2, §3, §4, §5

[4] = test system: RBBP1; assay: Temperature shift assay (non-BRD reader domains); assay type: binding; settings: 10µM compound
Description: as §1, §2, §3, §4, §5

[5] = molecular target: 53BP1 (Homo sapiens, UniProt Q12888); assay: Temperature shift assay (non-BRD reader domains); assay type: binding; settings: 10µM compound
Chain of 53BP1 (Q12888 1484-1603 limits assumed, species assumed): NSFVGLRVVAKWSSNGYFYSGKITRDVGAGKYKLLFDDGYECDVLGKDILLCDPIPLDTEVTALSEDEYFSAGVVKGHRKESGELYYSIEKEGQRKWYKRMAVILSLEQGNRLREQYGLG
Description: as §1, §2, §3, §4, §5

[6] = molecular target: BRPF3 (Homo sapiens, UniProt Q9ULD4); assay: Temperature shift assay (non-BRD reader domains); assay type: binding; settings: 10µM compound
Chain of BRPF3 (Q9ULD4 1076-1159 limits assumed, species assumed): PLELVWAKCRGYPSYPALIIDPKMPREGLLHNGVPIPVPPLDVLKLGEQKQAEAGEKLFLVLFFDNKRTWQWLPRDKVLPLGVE
Description: as §1, §2, §3, §4, §5

[7] = molecular target: EED (Homo sapiens, UniProt O75530); assay: Temperature shift assay (non-BRD reader domains); assay type: binding; settings: 10µM compound
Chain of EED (O75530 whole entry, species assumed, the tested form may be a part): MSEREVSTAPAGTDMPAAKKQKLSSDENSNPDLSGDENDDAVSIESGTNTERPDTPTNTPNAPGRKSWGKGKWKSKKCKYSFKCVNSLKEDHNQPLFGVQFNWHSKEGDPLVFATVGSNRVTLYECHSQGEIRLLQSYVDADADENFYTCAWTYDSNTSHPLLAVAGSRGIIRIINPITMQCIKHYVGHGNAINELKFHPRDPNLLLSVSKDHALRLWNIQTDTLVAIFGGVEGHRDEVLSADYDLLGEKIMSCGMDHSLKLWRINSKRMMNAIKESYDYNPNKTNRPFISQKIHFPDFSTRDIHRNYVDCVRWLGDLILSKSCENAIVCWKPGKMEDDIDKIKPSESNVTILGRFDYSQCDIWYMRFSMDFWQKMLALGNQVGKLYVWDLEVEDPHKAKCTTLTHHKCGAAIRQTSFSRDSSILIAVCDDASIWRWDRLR
Description: as §1, §2, §3, §4, §5

[8] = molecular target: T1, SND1 (Homo sapiens, UniProt Q7KZF4); assay: Temperature shift assay (non-BRD reader domains); assay type: binding; settings: 10µM compound
T1 sequence (Q7KZF4 729-787 limits assumed): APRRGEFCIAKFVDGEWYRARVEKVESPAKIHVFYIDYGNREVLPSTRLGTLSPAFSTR
Description: as §1, §2, §3, §4, §5

[9] = molecular target: T2, UHRF1 (Homo sapiens, UniProt Q96T88); assay: Temperature shift assay (non-BRD reader domains); assay type: binding; settings: 10µM compound
T2 sequence (Q96T88 126-285 limits assumed): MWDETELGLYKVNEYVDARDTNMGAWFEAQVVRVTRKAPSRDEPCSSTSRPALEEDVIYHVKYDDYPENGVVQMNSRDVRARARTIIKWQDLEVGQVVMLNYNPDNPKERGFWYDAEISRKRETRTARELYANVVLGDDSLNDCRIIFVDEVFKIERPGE
Description: as §1, §2, §3, §4, §5

[10] = molecular target: T3, SETD8 (Homo sapiens, UniProt Q9NQR1); assay: Methyl transferase scintillation proximity assay; assay type: biochemical; settings: average of two measurements; for inhibition at 10 µM: read-out: MTases Inhibition (%)
T3 construct: purchased DiscoverX BROMOscan (bromodomains); SGC in-house methyltransferase panel
T3 sequence (Q9NQR1 1-393): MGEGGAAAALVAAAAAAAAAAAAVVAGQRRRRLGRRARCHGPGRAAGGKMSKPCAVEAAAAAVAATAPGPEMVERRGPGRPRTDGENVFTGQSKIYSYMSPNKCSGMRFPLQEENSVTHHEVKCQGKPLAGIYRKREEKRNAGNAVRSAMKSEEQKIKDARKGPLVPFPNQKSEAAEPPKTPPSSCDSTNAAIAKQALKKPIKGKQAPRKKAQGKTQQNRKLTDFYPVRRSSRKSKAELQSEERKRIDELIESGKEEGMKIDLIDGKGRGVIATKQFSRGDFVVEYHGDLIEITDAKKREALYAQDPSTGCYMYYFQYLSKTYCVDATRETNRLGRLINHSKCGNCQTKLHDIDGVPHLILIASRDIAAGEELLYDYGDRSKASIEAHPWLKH
Method in brief: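 Read-out is scintillation counts (CPM) from biotinylated substrate carrying a ^3H-methyl group, normalised to no-compound (100%) and no-enzyme (0%) wells. Reactions used ^3H-SAM and substrate close to each enzyme's apparent Km.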

[11] = molecular target: BRD3(1) (Homo sapiens, UniProt Q15059); assay: BROMOscan ligand-binding assay; settings: BROMOscan Gene Symbol BRD3(1)
Chain of BRD3(1) (Q15059 34-140 limits assumed): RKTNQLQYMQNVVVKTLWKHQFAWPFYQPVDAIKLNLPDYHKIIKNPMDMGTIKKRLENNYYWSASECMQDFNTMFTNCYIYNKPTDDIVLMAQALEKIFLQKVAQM
Description: (§6) BROMOscan is a binding assay based on the well-known KINOMEscan technology. This assay measures the binding of a DNA-tagged bromodomain to an immobilized BRD ligand. If an inhibitor is present, it will compete with the bromodomain binding to the immobilized ligand, resulting in reduction of a quantitative PCR (qPCR) signal in a dose-dependent manner.

[12] = molecular target: BRD4(2) (Homo sapiens, UniProt O60885); assay: BROMOscan ligand-binding assay
Description: as §6

[13] = molecular target: BRD2(2) (Homo sapiens, UniProt P25440); assay: BROMOscan ligand-binding assay
Chain of BRD2(2) (P25440 344-453 limits assumed): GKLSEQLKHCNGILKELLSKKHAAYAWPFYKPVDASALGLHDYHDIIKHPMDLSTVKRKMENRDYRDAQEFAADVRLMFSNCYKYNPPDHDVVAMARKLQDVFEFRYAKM
Description: as §6

[14] = molecular target: T4, TAF1(2) (Homo sapiens, UniProt P21675); assay: BROMOscan ligand-binding assay
T4 sequence (P21675 1519-1628 limits assumed): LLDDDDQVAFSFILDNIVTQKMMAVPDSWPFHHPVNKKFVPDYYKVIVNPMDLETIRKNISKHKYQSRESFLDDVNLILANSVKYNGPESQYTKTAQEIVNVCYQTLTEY
Description: as §6

[15] = molecular target: T5, BRD7 (Homo sapiens, UniProt Q9NPI1); assay: BROMOscan ligand-binding assay; settings: KD, BROMOscan Gene Symbol BRD7
T5 sequence (Q9NPI1 131-235 limits assumed): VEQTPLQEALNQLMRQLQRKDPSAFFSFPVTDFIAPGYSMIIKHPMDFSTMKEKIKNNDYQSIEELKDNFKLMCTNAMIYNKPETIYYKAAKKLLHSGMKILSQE
Description: as §6

[16] = molecular target: BRD8(2) (Homo sapiens, UniProt Q9H0E9); assay: BROMOscan ligand-binding assay
Chain of BRD8(2) (Q9H0E9 1099-1207 limits assumed): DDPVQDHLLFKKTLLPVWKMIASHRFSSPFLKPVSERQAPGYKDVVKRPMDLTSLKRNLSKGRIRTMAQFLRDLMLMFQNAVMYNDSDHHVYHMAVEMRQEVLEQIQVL
Description: as §6

[17] = molecular target: T6, TRIM24 (Homo sapiens, UniProt O15164); assay: BROMOscan ligand-binding assay; settings: KD
T6 sequence (O15164 899-1004 limits assumed): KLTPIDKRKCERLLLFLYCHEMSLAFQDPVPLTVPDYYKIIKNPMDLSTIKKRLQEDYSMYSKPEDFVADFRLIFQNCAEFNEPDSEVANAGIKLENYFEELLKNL
Description: as §6

[18] = molecular target: BRD3(1,2) (Homo sapiens, UniProt Q15059); assay: BROMOscan ligand-binding assay; settings: KD, BROMOscan Gene Symbol BRD3(1,2)
Chain of BRD3(1,2) (Q15059 24-416 limits assumed): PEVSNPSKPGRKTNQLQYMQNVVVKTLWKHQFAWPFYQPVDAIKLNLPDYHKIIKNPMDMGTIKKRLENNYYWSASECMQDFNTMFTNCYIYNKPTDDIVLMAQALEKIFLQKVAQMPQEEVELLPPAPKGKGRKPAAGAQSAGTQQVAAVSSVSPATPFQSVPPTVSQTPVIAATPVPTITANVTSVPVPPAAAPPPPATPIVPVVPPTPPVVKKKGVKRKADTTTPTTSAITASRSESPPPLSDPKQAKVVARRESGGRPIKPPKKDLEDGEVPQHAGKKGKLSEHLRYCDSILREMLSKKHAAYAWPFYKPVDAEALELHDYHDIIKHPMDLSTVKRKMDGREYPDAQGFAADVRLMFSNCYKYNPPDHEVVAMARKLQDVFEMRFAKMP
Description: as §6

[19] = molecular target: BRD2(1,2) (Homo sapiens, UniProt P25440); assay: BROMOscan ligand-binding assay
Chain of BRD2(1,2) (P25440 71-455 limits assumed): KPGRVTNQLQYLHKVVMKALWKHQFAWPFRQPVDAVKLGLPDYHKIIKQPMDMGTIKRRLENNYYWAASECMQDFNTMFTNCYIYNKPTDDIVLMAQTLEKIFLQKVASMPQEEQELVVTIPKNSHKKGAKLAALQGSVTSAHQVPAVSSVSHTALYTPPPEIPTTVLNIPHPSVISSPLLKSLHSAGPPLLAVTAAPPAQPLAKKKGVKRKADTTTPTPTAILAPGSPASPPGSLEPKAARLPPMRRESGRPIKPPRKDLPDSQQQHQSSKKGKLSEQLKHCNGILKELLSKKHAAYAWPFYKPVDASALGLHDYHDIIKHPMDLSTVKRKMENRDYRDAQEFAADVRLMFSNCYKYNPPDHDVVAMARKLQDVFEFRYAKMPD
Description: as §6

[20] = KD (BROMOscan), sheet prints no unit (nM)
[21] = KD, BROMOscan Gene Symbol BRD8(2)

Chain of FXR1 (P51114 2-132 limits assumed, species assumed): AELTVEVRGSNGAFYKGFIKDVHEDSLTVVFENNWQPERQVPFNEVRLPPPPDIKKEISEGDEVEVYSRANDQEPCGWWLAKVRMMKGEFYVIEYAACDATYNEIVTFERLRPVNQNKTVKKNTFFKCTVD

Row | Compound | Tm (C) 10µM, temperature shift [1] | Tm (C) 10µM, temperature shift [2] | Tm (C) 10µM, temperature shift [3] | Tm (C) 10µM, temperature shift [5] | Tm (C) 10µM, temperature shift [6] | Tm (C) 10µM, temperature shift [7] | Tm (C) 10µM, temperature shift [8] | Tm (C) 10µM, temperature shift [9] | inhibition at 10 µM [10] | Tm (C) 10µM, temperature shift [4] | other results
1 | Cc1c(NC(=O)c2cc(C(N)=O)nc3cc(F)ccc23)c(C(F)(F)F)nn1Cc1ccc(C(C)(C)C)cc1 [BAY-588] | -1.2 Kelvin | -5.3 Kelvin | -7.3 Kelvin | -2.3 Kelvin |  | -0.5 Kelvin | -1.0 Kelvin | -0.4 Kelvin | -3% | -0.1 Kelvin | 
2 | COc1cc(Cl)c(C(=O)N[C@@H](CN[C@H]2CC[C@@H](N)CC2)Cc2ccc(C#N)cc2)cc1-c1ccc(CN[C@H](C)c2ccc(C)cc2)o1 [BAY-850] | -1.7 Kelvin | -1.8 Kelvin | 0.2 Kelvin | -0.7 Kelvin | -0.4 Kelvin |  | -1.6 Kelvin | -0.3 Kelvin | 2% | -1.0 Kelvin | 
3 | Cc1noc(C)c1-c1ccc2c(c1)nc(CCc1ccccc1)n2CCN1CCOCC1 [CBP30-298] |  |  |  |  |  |  |  |  |  |  | Kd [11]: 0.96 µM; Kd ([12]; BROMOscan Gene Symbol BRD4(2)): 2.7 µM; Kd ([13]; BROMOscan Gene Symbol BRD2(2)): 1.8 µM; Kd ([14]; BROMOscan Gene Symbol TAF1(2)): 5.8 µM
4 | CCCOc1ccn2c(C(C)=O)cc(-c3ccccc3S(C)(=O)=O)c2c1 [GSK2801] |  |  |  |  |  |  |  |  |  |  | Kd [15]: 22 µM; Kd ([11]; KD): 34 µM; Kd [16, 20]: > 30000 nM; Kd [16, 21]: > 100000 nM; Kd ([17]; BROMOscan Gene Symbol TRIM24(Bromo.)): 24 µM; Kd [12]: 29 µM; Kd [13]: 22 µM; Kd [18]: 17 µM; Kd [19]: 19 µM; Kd [14]: 1.4 µM
5 | COc1ccccc1C(=O)Nc1cc2c(cc1N1CCNC[C@H]1C)n(C)c(=O)n2C [GSK6853] |  |  |  |  |  |  |  |  |  |  | MTases Inhibition (%) ([10]; 10µM): -6%
6 | CCC(=O)N1CCOc2c(cc(-c3ccc(OC)c(OC)c3)cc2OCC2CCCN(C)C2)C1 (stereo not drawn) [I-CBP112] | 0.9 Kelvin | -0.6 Kelvin | -0.2 Kelvin | 0.3 Kelvin | 0.0 Kelvin | -0.5 Kelvin | -0.7 Kelvin | 0.0 Kelvin |  | -0.1 Kelvin | Kd [15]: 7.6 µM; Kd ([11]; KD): 5.4 µM; Kd [16, 20]: > 30000 nM; Kd [16, 21]: > 100000 nM; Kd ([17]; TRIM24(Bromo.)): 12 µM; Kd [12]: 16 µM; Kd [13]: 26 µM; Kd [18]: 6.3 µM; Kd [19]: 6.9 µM; Kd [14]: 45 µM

Now from value to compound, other results behind:

Row | Tm (C) 10µM, temperature shift [1] | Tm (C) 10µM, temperature shift [2] | Tm (C) 10µM, temperature shift [3] | Tm (C) 10µM, temperature shift [5] | Tm (C) 10µM, temperature shift [6] | Tm (C) 10µM, temperature shift [7] | Tm (C) 10µM, temperature shift [8] | Tm (C) 10µM, temperature shift [9] | inhibition at 10 µM [10] | Compound | Tm (C) 10µM, temperature shift [4] | other results
7 | 0.8 Kelvin | -1.4 Kelvin | 0.2 Kelvin | 0.3 Kelvin | 1.5 Kelvin |  |  |  |  | Cc1cc2c(cc1N1C(=O)c3cccc4c(CCCO)ccc(c34)C1=O)n(C)c(=O)n2C [BAY-299] | -1.0 Kelvin | 
8 | 0.3 Kelvin | -0.9 Kelvin | 0.5 Kelvin |  | 1.0 Kelvin | -0.3 Kelvin | -1.0 Kelvin |  | -8% | Cc1nnc2c3ccccc3c(N[C@@H](C)[C@H](c3ccccc3)N(C)C)nn12 [L-Moses] | -0.4 Kelvin | 
